From patent publication US10780095B2, “Compositions and methods for treating disorders of circadian and diurnal rhythms using prokineticin 2 agonists and antagonists” (THE REGENTS OF THE UNIVERSITY OF CALIFORNIA, priority 2016, dated 2020)
Values joined by “and” are separate entries in the source; they are usually repeats but may differ in a detail not shown here. Identical values can stand only once.

Legend:
recombinant PKR1 = recombinant PKR1 (Homo sapiens (Human), UniProt Q8TCW9); assay: Aequorin-based luminescent Ca2+ mobilization assay, antagonist mode, PKR1; type: cell-based; settings: CHO cells stably expressing aequorin and recombinant PKR1; challenge with recombinant PK2; Ki converted from IC50 by IC50/(1+[PK2]/EC50PK2)
Chain of recombinant PKR1 (Q8TCW9 whole entry): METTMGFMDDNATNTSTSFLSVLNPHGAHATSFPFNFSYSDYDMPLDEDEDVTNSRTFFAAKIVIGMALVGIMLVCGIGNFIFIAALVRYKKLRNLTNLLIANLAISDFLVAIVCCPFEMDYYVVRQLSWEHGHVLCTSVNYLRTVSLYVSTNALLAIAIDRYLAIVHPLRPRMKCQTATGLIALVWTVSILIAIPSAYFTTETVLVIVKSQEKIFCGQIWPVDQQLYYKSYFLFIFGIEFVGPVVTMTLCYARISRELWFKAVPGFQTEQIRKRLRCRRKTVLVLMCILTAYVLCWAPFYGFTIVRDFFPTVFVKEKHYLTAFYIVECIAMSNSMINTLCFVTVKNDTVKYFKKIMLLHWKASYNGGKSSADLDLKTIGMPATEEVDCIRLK
Description: (§1) An aequorin-based luminescent assay for calcium mobilization was used to measure mobilization of intracellular Ca^2+ (Bullock et al., Mol Pharmacol 65, 582-588, 2004). Chinese hamster ovary (CHO) cells stably expressing photoprotein aequorin and recombinant PKR1 or PKR2 were tested by this method. Briefly, the cells were charged in Opti-MEM™ (Invitrogen) containing 8 μM of coelenterazine cp at 37° C. for 2 hours. Cells were detached by brief trypsinization and maintained in Hank's Balanced Salt Solution (HBSS) plus 10 mM HEPES (pH7.5) and 0.1% BSA at about 5×10^5 cells/ml. Luminescence measurements were made using a Berthold luminometer.
(§2) All compounds were diluted in HBSS plus 10 mM HEPES (pH7.5) and 0.1% BSA. To test the agonist activity, 100 μl of cells were injected into the tubes with 20 μl of compounds. For antagonist assays, 80 μl cells were incubated in the tubes with 20 μl different concentrations of antagonists at room temperature for 20 minutes, and then 100 μl of recombinant PK2 were injected. The IC50 obtained from the assays were then converted to Ki values using the formula: IC50/(1+[PK2]/EC50PK2).

recombinant PKR2 = recombinant PKR2 (Homo sapiens (Human), UniProt Q8NFJ6); assay: Aequorin-based luminescent Ca2+ mobilization assay, antagonist mode, PKR2; type: cell-based; settings: CHO cells stably expressing aequorin and recombinant PKR2; challenge with recombinant PK2; Ki converted from IC50 by IC50/(1+[PK2]/EC50PK2)
Chain of recombinant PKR2 (Q8NFJ6 whole entry): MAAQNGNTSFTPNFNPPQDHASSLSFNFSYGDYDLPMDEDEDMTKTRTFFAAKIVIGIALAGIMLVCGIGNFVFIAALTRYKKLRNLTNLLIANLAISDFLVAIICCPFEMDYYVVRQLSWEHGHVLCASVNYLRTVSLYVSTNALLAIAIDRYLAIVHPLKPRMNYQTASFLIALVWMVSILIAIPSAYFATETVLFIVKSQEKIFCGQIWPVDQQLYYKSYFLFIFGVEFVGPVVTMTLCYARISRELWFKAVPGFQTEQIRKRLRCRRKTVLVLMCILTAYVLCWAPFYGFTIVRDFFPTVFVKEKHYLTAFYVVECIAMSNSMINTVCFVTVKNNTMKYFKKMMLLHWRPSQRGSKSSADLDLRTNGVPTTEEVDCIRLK
Description: as §1, §2

monkeys = assay: Sleep time in monkeys (wireless sleep tracker) after PK2 antagonist; type: in vivo, Macaca fascicularis
mice [1] = assay: Locomotor activity in mice after PK2 antagonist; type: in vivo
mice [2] = assay: Arousal level (EEG/EMG wake time) in mice after PK2 antagonist; type: in vivo

| SMILES | Ki (recombinant PKR1) | other results |
| --- | --- | --- |
| COc1cc(CNCC(C)C(=O)N(Cc2cc(Cl)c3c(c2)OCCCO3)CC(C)C)c(F)cc1F (racemic) [(±)-2-Methyl-3-((3-methoxy-4,6-difluoro)benzylamino)-N-(9-chloro-3,4-dihydro-2H-1,5-benzodioxepin-7-ylmethyl)-N-isobutylpropanamide] | 43.5 nM |  |
| COc1cc(F)ccc1CN1CCO[C@@H](C(=O)N(Cc2cc(Cl)c3c(c2)OCCCO3)CC(C)C)C1 [(−)-(2R)-1-(4-Fluoro-2-methoxybenzyl)-N-(9-chloro-3,4-dihydro-2H-1,5-benzodioxepin-7-ylmethyl)-N-isobutylmorpholine-2-carboxamide] | 7.3 nM |  |
| COc1cc(CN2CCO[C@@H](C(=O)N(Cc3cc(Cl)c4c(c3)OCCCO4)CC(C)C)C2)ccc1F [(−)-(2R)-1-(4-Fluoro-3-methoxybenzyl)-N-(9-chloro-3,4-dihydro-2H-1,5-benzodioxepin-7-ylmethyl)-N-isobutylmorpholine-2-carboxamide] | 2.6 nM and 5.4 nM | Ki (recombinant PKR2): 1.9 nM |
| COc1ccc(F)cc1CN1CCO[C@@H](C(=O)N(Cc2cc(Cl)c3c(c2)OCCCO3)CC(C)C)C1 [(−)-(2R)-1-(5-Fluoro-2-methoxybenzyl)-N-(9-chloro-3,4-dihydro-2H-1,5-benzodioxepin-7-ylmethyl)-N-isobutylmorpholine-2-carboxamide] | 7.3 nM |  |
| COc1ccc(F)c(CN2CCO[C@@H](C(=O)N(Cc3cc(Cl)c4c(c3)OCCCO4)CC(C)C)C2)c1 [(−)-(2R)-1-(6-Fluoro-3-methoxybenzyl)-N-(9-chloro-3,4-dihydro-2H-1,5-benzodioxepin-7-ylmethyl)-N-isobutylmorpholine-2-carboxamide] | 10 nM |  |
| CC(C)CN(Cc1cc(Cl)c2c(c1)OCCCO2)C(=O)[C@H](C)CNCc1cccc2nc[nH]c12 [(−)-(2R)-2-Methyl-3-(benzimidazol-4-ylmethylamino)-N-(9-chloro-3,4-dihydro-2H-1,5-benzodioxepin-7-ylmethyl)-N-isobutylpropanamide] | 3.5 nM and 4.2 nM |  |
| COc1c(F)cccc1CN1CC[C@@H](C(=O)N(Cc2cc(Cl)c3c(c2)OCCCO3)CC(C)C)C1 [(−)-(3R)-1-(3-Fluoro-2-methoxybenzyl)-N-(9-chloro-3,4-dihydro-2H-1,5-benzodioxepin-7-ylmethyl)-N-isobutylpyrrolidine-3-carboxamide] | 170 nM |  |
| COc1cc(CN2CCC[C@@H](C(=O)N(Cc3cc(Cl)c4c(c3)OCCCO4)CC(C)C)C2)c(F)cc1F [(−)-(3R)-1-(4,6-Difluoro-3-methoxybenzyl)-N-(9-chloro-3,4-dihydro-2H-1,5-benzodioxepin-7-ylmethyl)-N-isobutylpiperidine-3-carboxamide] | 13.8 nM |  |
| COc1cc(CN2CC[C@@H](C(=O)N(Cc3cc(Cl)c4c(c3)OCCCO4)CC(C)C)C2)c(F)cc1F [(−)-(3R)-1-(4,6-Difluoro-3-methoxybenzyl)-N-(9-chloro-3,4-dihydro-2H-1,5-benzodioxepin-7-ylmethyl)-N-isobutylpyrrolidine-3-carboxamide] | 6.14 nM |  |
| COc1cc(F)ccc1CN1CC[C@@H](C(=O)N(Cc2cc(Cl)c3c(c2)OCCCO3)CC(C)C)C1 [(−)-(3R)-1-(4-Fluoro-2-methoxybenzyl)-N-(9-chloro-3,4-dihydro-2H-1,5-benzodioxepin-7-ylmethyl)-N-isobutylpyrrolidine-3-carboxamide] | 9.32 nM |  |
| CC(C)CN(Cc1cc(Cl)c2c(c1)OCCCO2)C(=O)[C@@H]1CCN(Cc2ccc(F)c(O)c2)C1 [(−)-(3R)-1-(4-Fluoro-3-hydroxybenzyl)-N-(9-chloro-3,4-dihydro-2H-1,5-benzodioxepin-7-ylmethyl)-N-isobutylpyrrolidine-3-carboxamide] | 107 nM |  |
| COc1ccc(F)cc1CN1CC[C@@H](C(=O)N(Cc2cc(Cl)c3c(c2)OCCCO3)CC(C)C)C1 [(−)-(3R)-1-(5-Fluoro-2-methoxybenzyl)-N-(9-chloro-3,4-dihydro-2H-1,5-benzodioxepin-7-ylmethyl)-N-isobutylpyrrolidine-3-carboxamide] | 9.3 nM and 6.9 nM |  |
| CC(C)CN(Cc1cc(Cl)c2c(c1)OCCCO2)C(=O)[C@@H]1CCN(Cc2cc(F)cc3nc[nH]c23)C1 [(−)-(3R)-1-(5-fluro-benzimidazol-4-ylmethyl)-N-(9-chloro-3,4-dihydro-2H-1,5-benzodioxepin-7-ylmethyl)-N-isobutylpyrrolidine-3-carboxamide] | 71.3 nM |  |
| COc1ccc(F)c(CN2CC[C@@H](C(=O)N(Cc3cc(Cl)c4c(c3)OCCCO4)CC(C)C)C2)c1 [(−)-(3R)-1-(6-Fluoro-3-methoxybenzyl)-N-(9-chloro-3,4-dihydro-2H-1,5-benzodioxepin-7-ylmethyl)-N-isobutylpyrrolidine-3-carboxamide] | 301 nM |  |
| CC(C)CN(Cc1cc(Cl)c2c(c1)OCCCO2)C(=O)[C@@H]1CCCN(Cc2cccc3nc[nH]c23)C1 [(−)-(3R)-1-(benzimidazol-4-ylmethyl)-N-(9-chloro-3,4-dihydro-2H-1,5-benzodioxepin-7-ylmethyl)-N-isobutylpiperidine-3-carboxamide] | 97 nM | Ki (recombinant PKR2): 3 nM |
| COc1cc(CN2CC[C@@H](C(=O)N(Cc3cc(Cl)c4c(c3)OCCCO4)CC(C)C)C2)ccc1F [PKRA83, (3R)-1-(4-Fluoro-3-methoxybenzyl)-N-(9-chloro-3,4-dihydro-2H-1,5-benzodioxepin-7-ylmethyl)-N-isobutylpyrrolidine-3-carb oxamide] |  | increase of the sleep time (monkeys; 10 mg/kg intramuscularly at ZT10, vs vehicle (FIG. 6C)): > 70 min; sleep time (monkeys; nasal topic application, P<0.05 paired t-test (FIG. 19)): significantly increased; sleep time (monkeys; ocular topic application, P<0.05 paired t-test (FIG. 15)): significantly increased; locomotor activity (mice [1]; mice, 40 mg/kg intraperitoneally at ZT6, vs vehicle (FIG. 6A)): significantly increased; locomotor activity (mice [1]; wild type mice, ocular topic delivery during the late night, vs control (FIG. 13)): increased; wakefulness (wake time) (mice [2]; 40 mg/kg intraperitoneally at ZT6, vs vehicle (FIG. 6B)): significantly increased; wake time (mice [2]; ocular topic application at day time, P<0.05 paired t-test (FIG. 14)): significantly increased |

The remaining compounds from weak to strong by Ki (recombinant PKR1), led by results:

| Ki (recombinant PKR1) | SMILES | other results |
| --- | --- | --- |
| 6.14 nM | CC(C)CN(Cc1cc(Cl)c2c(c1)OCCCO2)C(=O)[C@H]1CN(Cc2cc(F)cc3nc[nH]c23)CCO1 [(−)-(2R)-1-(5-fluro-benzimidazol-4-ylmethyl)-N-(9-chloro-3,4-dihydro-2H-1,5-benzodioxepin-7-ylmethyl)-N-isobutylmorpholine-2-carboxamide] |  |
| 5.6 nM | CC(C)CN(Cc1cc(Cl)c2c(c1)OCCCO2)C(=O)C(C)CNCc1cccc2nc[nH]c12 (racemic) [(±)-2-Methyl-3-(benzimidazol-4-ylmethylamino)-N-(9-chloro-3,4-dihydro-2H-1,5-benzodioxepin-7-ylmethyl)-N-isobutylpropanamide] | Ki (recombinant PKR2): 2.1 nM |
| 4.4 nM | CC(C)CN(Cc1cc(Cl)c2c(c1)OCCCO2)C(=O)C(C)CNCc1ccc(F)c(O)c1 (racemic) [(±)-2-Methyl-3-((3-hydroxy-4-fluoro)benzylamino)-N-(9-chloro-3,4-dihydro-2H-1,5-benzodioxepin-7-ylmethyl)-N-isobutylpropanamide] |  |
| 4.09 nM | COc1cc(CN2CCO[C@@H](C(=O)N(Cc3cc(Cl)c4c(c3)OCCCO4)CC(C)C)C2)c(F)cc1F [(−)-(2R)-1-(4,6-Difluoro-3-methoxybenzyl)-N-(9-chloro-3,4-dihydro-2H-1,5-benzodioxepin-7-ylmethyl)-N-isobutylmorpholine-2-carboxamide] |  |
| 2.6 nM | CC(C)CN(Cc1cc(Cl)c2c(c1)OCCCO2)C(=O)[C@@H]1CCN(Cc2cccc3nc[nH]c23)C1 [(−)-(3R)-1-(benzimidazol-4-ylmethyl)-N-(9-chloro-3,4-dihydro-2H-1,5-benzodioxepin-7-ylmethyl)-N-isobutylpyrrolidine-3-carboxamide] | Ki (recombinant PKR2): 1.7 nM |
| 2.5 nM | COc1cccc(CN2CCO[C@@H](C(=O)N(Cc3cc(Cl)c4c(c3)OCCCO4)CC(C)C)C2)c1 [(−)-(2R)-1-(3-Methoxybenzyl)-N-(9-chloro-3,4-dihydro-2H-1,5-benzodioxepin-7-ylmethyl)-N-isobutylmorpholine-2-carboxamide] |  |
| 1.49 nM | COc1ccccc1CN1CCO[C@@H](C(=O)N(Cc2cc(Cl)c3c(c2)OCCCO3)CC(C)C)C1 [(−)-(2R)-1-(2-Methoxybenzyl)-N-(9-chloro-3,4-dihydro-2H-1,5-benzodioxepin-7-ylmethyl)-N-isobutylmorpholine-2-carboxamide] |  |
